Like-named read-outs stand apart in the source and are kept apart here.
Assays:
5‐AR types 1 and 2 = test: Effect of dutasteride on in vitro testosterone metabolism in human hepatocytes; format: cell-based; conditions: 200 nM dutasteride with 50 μM testosterone, 60 minutes; for change in metabolite formation/levels with dutasteride co‐treatment: human hepatocytes
testosterone production = conditions: normal men, single injection 300 μg/kg subcutaneous; cited from earlier work
UGT2B17 = target: T1, UGT2B17 (Homo sapiens, UniProt O75795); format: in vitro ADME; conditions: scaled by absolute UGT2B abundance in the intestine
T1 sequence (O75795 24-530): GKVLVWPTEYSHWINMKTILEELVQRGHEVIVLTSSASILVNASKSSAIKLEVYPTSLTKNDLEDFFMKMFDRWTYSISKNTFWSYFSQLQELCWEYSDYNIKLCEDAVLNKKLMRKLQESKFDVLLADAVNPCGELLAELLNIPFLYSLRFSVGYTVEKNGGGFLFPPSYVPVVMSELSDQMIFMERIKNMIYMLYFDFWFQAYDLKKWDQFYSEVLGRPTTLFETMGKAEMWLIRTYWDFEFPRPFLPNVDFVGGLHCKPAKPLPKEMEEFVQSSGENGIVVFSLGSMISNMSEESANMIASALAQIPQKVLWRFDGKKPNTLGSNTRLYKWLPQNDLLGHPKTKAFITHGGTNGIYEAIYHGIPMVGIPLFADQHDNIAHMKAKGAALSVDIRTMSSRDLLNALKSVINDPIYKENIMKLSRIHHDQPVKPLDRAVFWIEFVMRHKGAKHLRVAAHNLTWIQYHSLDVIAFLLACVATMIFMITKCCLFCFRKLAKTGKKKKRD

[1] = for AUC0‐24h at T800, fold higher than with T200: 800 mg vs 200 mg oral testosterone
human hepatocytes = test: In vitro metabolite formation from testosterone in primary human hepatocyte; format: in vitro ADME
[2] = oral; cited from earlier work
UGT2B7 = UGT2B7 (Homo sapiens, UniProt P16662); conditions: scaled by absolute UGT2B abundance in the liver
UGT2B7, sequence (P16662 24-529): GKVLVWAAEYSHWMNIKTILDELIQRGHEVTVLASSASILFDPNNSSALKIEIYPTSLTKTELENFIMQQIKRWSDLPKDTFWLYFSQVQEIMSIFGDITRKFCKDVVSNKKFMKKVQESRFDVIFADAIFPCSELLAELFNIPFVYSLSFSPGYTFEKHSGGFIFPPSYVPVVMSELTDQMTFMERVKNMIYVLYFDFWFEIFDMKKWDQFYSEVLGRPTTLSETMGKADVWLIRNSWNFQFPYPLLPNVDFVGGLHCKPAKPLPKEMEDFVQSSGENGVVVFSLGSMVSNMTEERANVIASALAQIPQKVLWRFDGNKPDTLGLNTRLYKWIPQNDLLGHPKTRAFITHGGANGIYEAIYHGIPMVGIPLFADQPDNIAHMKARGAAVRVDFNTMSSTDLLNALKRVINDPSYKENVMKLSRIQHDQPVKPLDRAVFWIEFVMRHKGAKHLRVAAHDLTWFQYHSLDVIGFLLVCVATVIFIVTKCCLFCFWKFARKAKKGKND

Compound: C[C@]12C=CC(=O)N[C@@H]1CC[C@@H]1[C@@H]2CC[C@]2(C)[C@@H](C(=O)Nc3cc(C(F)(F)F)ccc3C(F)(F)F)CC[C@@H]12 [dutasteride, reference compound]
- inhibition of 5‐AR types 1 and 2 mediated metabolism of testosterone (5‐AR types 1 and 2): complete inhibition

Compound: acyline
- duration of suppression of testosterone production (testosterone production): ≥ 15 days

Compound: C[C@]12CC[C@@H](O)C[C@H]1CC[C@@H]1[C@@H]2CC[C@]2(C)C(=O)CC[C@@H]12 [Etio, etiocholanolone]
- predicted contribution of UGT2B17 to intestinal glucuronidation (UGT2B17): 90%
- circulating levels higher in T200+D and T800+D as compared with testosterone alone [1]: 2.3 fold

Compound: C[C@]12CCC(=O)C=C1CC[C@@H]1[C@@H]2CC[C@]2(C)C(=O)CC[C@@H]12 [AED, androstenedione]
- change in metabolite formation/levels with dutasteride co‐treatment (5‐AR types 1 and 2): No significant changes
- in vitro formation from testosterone (human hepatocytes): 46%
- AUC0‐24h at T800, fold higher than with T200 [1]: 4.2 fold
- circulating levels higher in T200+D and T800+D as compared with testosterone alone [1]: 5.7 fold
- Tmax ([1]; male, human, in vivo, 200 mg, T200): 2 h
- Tmax ([1]; male, human, in vivo, T200+D): 2 h

Compound: C[C@]12CC[C@H]3[C@@H](CCC4=CC(=O)CC[C@@]43C)[C@@H]1CC[C@@H]2O [Testosterone, reference compound]
- predicted contribution of UGT2B17 to intestinal glucuronidation (UGT2B17): 100%
- bioavailability [2]: 2–8%

Compound: C[C@]12CC[C@@H](O)C[C@@H]1CC[C@@H]1[C@@H]2CC[C@]2(C)C(=O)CC[C@@H]12 [A, androsterone]
- change in metabolite formation/levels with dutasteride co‐treatment (5‐AR types 1 and 2): significant decreases
- predicted contribution of UGT2B17 to intestinal glucuronidation (UGT2B17): 70%
- predicted contribution of UGT2B7 to hepatic glucuronidation (UGT2B7): 100%

Compound: C[C@]12CC[C@H]3[C@@H](C[C@@H](O)C4=CC(=O)CC[C@@]43C)[C@@H]1CC[C@@H]2O [6β‐OH‐T, 6β‐hydroxytestosterone]
- change in metabolite formation/levels with dutasteride co‐treatment (5‐AR types 1 and 2): significant decreases
- detection in serum ([1]; after oral testosterone): only detectable in a few samples

Compound: C[C@]12CCC(=O)C[C@@H]1CC[C@@H]1[C@@H]2CC[C@]2(C)[C@@H](O)CC[C@@H]12 [DHT, dihydrotestosterone]
- change in metabolite formation/levels with dutasteride co‐treatment (5‐AR types 1 and 2): significant decreases
- AUC0‐24h at T800, fold higher than with T200 [1]: 3.3 fold
- Tmax ([1]; male, human, in vivo, 800 mg, T800): 2 h
- AUC(0-t) ([1]; male, human, in vivo, AUC0–24h, T800+D, average, n = 7): 0.0266 µM·h
- Tmax ([1]; male, human, in vivo, T200+D): 4 h
